How the values were obtained:
129S6/SvEv mice [1] = test: Forced swim test (FST); immobility time; type: in vivo; conditions: for p, Immobility Time (s), FST Day 2, (R,S)-ketamine vs. FENM: (R,S)-ketamine 30 mg/kg vs. FENM 20 mg/kg; for p, Immobility Time (s), FST Day 2, Saline vs. drug: (R,S)-ketamine 30 mg/kg; for Behavior: Depressive-like: Prophylactic (7 days before stress)
Description: The FST was administered as previously described (47). Briefly, mice were placed into clear plastic buckets 20 cm in diameter and 23 cm deep filled ⅔ of the way with 22° C. water. Mice were videotaped from the side for 6 min and were exposed to the swim test on 2 consecutive days Immobility time was scored by an experimenter blind to the experimental groups.

129S6/SvEv mice [2] = test: Contextual fear conditioning (CFC), 3-shock; freezing; type: in vivo; conditions: 10 mg/kg, drug 1 week before stress
Description: A 3-shock CFC paradigm was administered as previously described (45, 46). CFC was conducted in chambers obtained from Med Associates (St. Albans, Vt.), with internal dimensions of approximately 20 cm wide×16 cm deep×20.5 cm high. The chambers had metal walls on each side, clear plastic front and back walls and ceilings, and stainless-steel bars on the floor. A house light (CM1820 bulb, 28v, 100 mA) mounted directly above the chamber provided illumination. Each chamber was located inside a larger, insulated, plastic cabinet that provided protection from outside light and noise. Each cabinet contained a ventilation fan that was operated during the sessions. A paper towel dabbed with lemon solution was placed underneath the chamber floor. Mice were held outside the experimental room in their home cages prior to testing and transported to the conditioning apparatus individually in standard mouse cages Chambers were cleaned with 70% EtOH between each set of mice. Mice were placed into the conditioning chamber and received shocks at 180 s, 240 s, and 300 s (2 s duration, 0.75 mA). Fifteen seconds after the last shock, mice were removed from the chamber. Overall, the training session lasted 317 s. […] All sessions were scored for freezing using FreezeFrame4.

[3] = Fisher's LSD, Baseline cohort, FENM 20 mg/kg, FIG. 6D
[4] = Saline vs. FENM (20 mg/kg), FIG. 8H
[5] = dose (20), drug 5 minutes after stress, FIG. 2F
[6] = non-stressed mice, FENM 20 mg/kg 1 hour before the start of the FST, vs saline

NC12CC3CC(C1)CC(CCF)(C3)C2 [FENM, 1-amino-3-fluoroethyl-adamantane]
p, Immobility Time Min 1 (sec), FST Day 2, Saline vs. FENM (129S6/SvEv mice [1]; [3]): 0.3330 | p, Immobility Time Min 2 (sec), FST Day 2, Saline vs. FENM (129S6/SvEv mice [1]; [3]): 0.4156 | p, Immobility Time Min 3 (sec), FST Day 2, Saline vs. FENM (129S6/SvEv mice [1]; [3]): 0.0346 | p, Immobility Time Min 4 (sec), FST Day 2, Saline vs. FENM (129S6/SvEv mice [1]; [3]): 0.2905 | p, Immobility Time Min 5 (sec), FST Day 2, Saline vs. FENM (129S6/SvEv mice [1]; [3]): 0.6448 | p, Immobility Time Min 6 (sec), FST Day 2, Saline vs. FENM (129S6/SvEv mice [1]; [3]): 0.5256 | p, Immobility Time (s), FST Day 2, (R,S)-ketamine vs. FENM (129S6/SvEv mice [1]; Fisher's PLSD after ANOVA, drug 5 minutes after stress, FIG. 3K): 0.0014 | p, Immobility Time (s), FST Day 2, Saline vs. drug (129S6/SvEv mice [1]; Fisher's PLSD after ANOVA, drug 5 minutes after stress, FENM 20 mg/kg, FIG. 3K): 0.0097 | p, Immobility Time (s), FST Day 2, (R,S)-ketamine vs. FENM (129S6/SvEv mice [1]; Fisher's PLSD after RMANOVA, drug 5 minutes after stress, FIG. 3J): 0.0069 | p, Immobility Time (s), FST Day 2, Saline vs. drug (129S6/SvEv mice [1]; Fisher's PLSD after RMANOVA, drug 5 minutes after stress, FENM 20 mg/kg, FIG. 3J): 0.0234 | Behavior: Depressive-like (129S6/SvEv mice [1]; dose 10 mg/kg): ↓ | Behavior: Depressive-like (129S6/SvEv mice [1]; dose 20 mg/kg): ↓ | Behavior: Depressive-like (129S6/SvEv mice [1]; dose 30 mg/kg): ↓ | Forced Swim Test Day 1, Immobility Time Min 1 (sec), p (Fisher's LSD) (129S6/SvEv mice [1]; [4]): <0.0001 | Forced Swim Test Day 1, Immobility Time Min 2 (sec), p (Fisher's LSD) (129S6/SvEv mice [1]; [4]): 0.0752 | Forced Swim Test Day 1, Immobility Time Min 3 (sec), p (Fisher's LSD) (129S6/SvEv mice [1]; [4]): 0.0422 | Forced Swim Test Day 1, Immobility Time Min 4 (sec), p (Fisher's LSD) (129S6/SvEv mice [1]; [4]): 0.4348 | Forced Swim Test Day 1, Immobility Time Min 5 (sec), p (Fisher's LSD) (129S6/SvEv mice [1]; [4]): 0.8223 | Forced Swim Test Day 1, Immobility Time Min 6 (sec), p (Fisher's LSD) (129S6/SvEv mice [1]; [4]): 0.0677 | Forced Swim Test Day 2, Immobility Time (sec), p (Fisher's LSD) (129S6/SvEv mice [1]; Saline vs. FENM (20 mg/kg), after ANOVA, FIG. 8K): 0.3636 | Forced Swim Test Day 2, Immobility Time (sec), p (Fisher's LSD) (129S6/SvEv mice [1]; Saline vs. FENM (20 mg/kg), after RMANOVA, FIG. 8J): 0.3085 | p, Fisher's PLSD Saline vs. drug, FST Day 2 Immobility Time Min 1 (s) (129S6/SvEv mice [1]; [5]): 0.0237 | p, Fisher's PLSD Saline vs. drug, FST Day 2 Immobility Time Min 2 (s) (129S6/SvEv mice [1]; [5]): 0.0034 | p, Fisher's PLSD Saline vs. drug, FST Day 2 Immobility Time Min 3 (s) (129S6/SvEv mice [1]; [5]): 0.0763 | p, Fisher's PLSD Saline vs. drug, FST Day 2 Immobility Time Min 4 (s) (129S6/SvEv mice [1]; [5]): 0.1586 | p, Fisher's PLSD Saline vs. drug, FST Day 2 Immobility Time Min 5 (s) (129S6/SvEv mice [1]; [5]): 0.0575 | p, Fisher's PLSD Saline vs. drug, FST Day 2 Immobility Time Min 6 (s) (129S6/SvEv mice [1]; [5]): 0.2137 | p, Fisher's PLSD Saline vs. drug, FST Day 2 Immobility Time (s) (129S6/SvEv mice [1]; dose (20), drug 5 minutes after stress, after ANOVA, FIG. 2G): 0.0024 | immobility, day 1 of the FST (129S6/SvEv mice [1]; [6]): comparable | immobility, day 2 of the FST (129S6/SvEv mice [1]; [6]): comparable | p, Immobility Time (sec), FST Day 1, Saline vs. FENM (129S6/SvEv mice [1]; t-test, Baseline cohort, FENM 20 mg/kg, FIG. 6C): 0.7086 | p, Immobility Time (sec), FST Day 2, Saline vs. FENM (129S6/SvEv mice [1]; t-test, Baseline cohort, FENM 20 mg/kg, FIG. 6E): 0.7847 | p, Fisher's LSD Saline vs. drug, CFC Re-exposure Freezing Min 1 (%) (129S6/SvEv mice [2]; FIG. 1C): 0.4040 | p, Fisher's LSD Saline vs. drug, CFC Re-exposure Freezing Min 2 (%) (129S6/SvEv mice [2]; FIG. 1C): 0.0961 | p, Fisher's LSD Saline vs. drug, CFC Re-exposure Freezing Min 3 (%) (129S6/SvEv mice [2]; FIG. 1C): 0.5544 | p, Fisher's LSD Saline vs. drug, CFC Re-exposure Freezing Min 4 (%) (129S6/SvEv mice [2]; FIG. 1C): 0.0419 | p, Fisher's LSD Saline vs. drug, CFC Re-exposure Freezing Min 5 (%) (129S6/SvEv mice [2]; FIG. 1C): 0.3855 | p, Fisher's LSD Saline vs. drug, CFC Re-exposure Freezing (%) (129S6/SvEv mice [2]; after ANOVA, FIG. 1D): 0.1313 | p, Fisher's LSD Saline vs. drug, CFC Re-exposure Freezing (%) (129S6/SvEv mice [2]; after RMANOVA, FIG. 1C): 0.1313
